Our source for the antioxidant activity values is patent US20090081322A1, “Process for the preparation of antioxidant conserve from Indian curry leaves (MURRAYA KOENIGII SPRENG.)” (Council of Scientific and Industrial Research, priority 2002, published 2009).

The experiment can be described thus: Antioxidant assay by β-carotene-linoleate model system. In kind it is biochemical. As to conditions: 100 ppm concentration; β-carotene bleaching, 90 min incubation at 50° C. On the procedure:
The antioxidant activity of curry leaves extract was evaluated by the β-carotene-linoleate model (Jayaprakasha and Jaganmohan Rao, Z. Naturforsch. 55C, 1018-1022, 2000). 0.2 mg of the β-carotene in 0.5 ml of chloroform, 20 mg of linoleic acid and 200 mg of Tween-40 (polyoxyethylene sorbitan monopalmitate) were mixed together. The chloroform was removed at 40° C. under vacuum using a rotary evaporator. The resulting solution was immediately diluted with 10 ml of triple-distilled water and the emulsion was mixed well for 1 min. The emulsion was further diluted with 40 ml of oxygenated water before use. 4 ml aliquots of this mixture were transferred into different tubes containing 0.2 ml of samples at 100 ppm concentrations in ethanol, butylated hydroxyanisole (BHA) was used for comparative purposes. A control containing 0.2 ml of ethanol and 4 ml of the above mixture was prepared. Optical density (OD) at 470 nm were taken for the all extracts and pure compounds immediately (t=0) at 15 min intervals for 1.5 h (t=90). […] The antioxidant activities (AA) of the samples were evaluated in terms of bleaching the β-carotene using the following formula. AA=100[1−(Ao−At)/(A^oo−A^ot)] where Ao and A^oo are the OD measured at zero time of incubation for test sample and control, respectively. At and A^ot are the OD measured in the test sample and control, respectively, after incubation for 90 min.

For `COc1ccc(O)c(C(C)(C)C)c1` [BHA, butylated hydroxy anisole], the antioxidant activity came out at 90.2%.
